Experimental findings from patent US11596615B2, “Compositions and methods for treatment of insulin resistance” (Temple University—Of The Commonwealth System Of Higher …, priority 2016, dated 2023) are described below.

Test [1] deals with 3T3-L1 adipocytes. As to the kind of experiment: Restoring glucose uptake in insulin-stimulated 3T3-L1 cells exposed to 4-HNE and H2O2 (FIG. 13). It is filed as cell-based, mouse. Particulars: 10 μM pretreatment 12 hours, then 4HNE and H2O2 4 hours; for glucose uptake impairment induced by 4-HNE and H2O2: FIG. 13. As for the experimental part:
Insulin-stimulated 3T3-L1 adipocytes were pretreated with the drug (S)-2-amino-6-((3-aminopropyl)amino)hexanoic acid dihydrochloride (10 μM) for 12 hours followed by exposure to 4HNE and H2O2 for an additional 4 hours. The amounts of glucose taken up by the 3T3-L1 adipocytes were measured by the MRM methods described above. The results in FIG. 13 show the effect of the drug in restoring glucose uptake in insulin-stimulated 3T3-L1 cells exposed to 4-HNE and H2O2: Control cells, no insulin (C− No Ins); control cells, with insulin (C+ Ins); 4HNE+H2O2-treated cells (4HNE/H2O2) and cells treated with drug+4HNE+H2O2 (“APL”).
Insulin-stimulated 3T3-L1 adipocytes were pretreated with the drug (S)-2-amino-5-((6-aminohexyl)amino)pentanoic acid dihydrochloride (10 μM) for 12 hours followed by exposure to 4HNE and H2O2 for an additional 4 hours. The amounts of glucose taken up by the 3T3-L1 adipocytes were measured by the MRM methods described above. FIG. 13 includes the results: cells treated with (S)-2-amino-5-((6-aminohexyl)amino)pentanoic acid trihydrochloride (MC-180351).
Insulin-stimulated 3T3-L1 adipocytes were pretreated with the drug (S)-2-amino-5-(([…])amino)pentanoic acid dihydrochloride (10 μM) for 12 hours followed by exposure to 4HNE and H2O2 for an additional 4 hours. The amounts of glucose taken up by the 3T3-L1 adipocytes were measured by the MRM methods described above. FIG. 13 includes the results: cells treated with (S)-2-amino-5-((5-aminopentyl)amino)pentanoic acid trihydrochloride (MC-180352).

Test [2] deals with 3T3-L1 adipocytes. As to the kind of experiment: Effect of 4-HNE and H2O2 on insulin-induced glucose uptake by 3T3-L1 adipocytes. It is filed as cell-based, mouse. The settings on record: 500 μM for 4 hour, then 100 nM insulin 60 minutes; FIG. 2. As for the experimental part: 3T3-L1 adipocytes (1×10^6) were treated with either 500 μM of 4-HNE or H2O2 or combination of both for 4 hour and were then stimulated with 100 nM insulin for 60 minutes. The glucose uptake was measured by a specific MRM method.

For another test, the system named is GLUT4. As to the kind of experiment: GLUT4 carbonylation (K264-HNE adduct) in 3T3-L1 cells overexpressing GLUT4, MRM. It is filed as cell-based. The settings on record: 20 μM for 4 hour, FIG. 1A-1B. Here is the method: A GLUT4-SNAP fusion construct was generated. 3T3-L1 adipocytes were then retrovirally transduced with the construct to overexpress the GLUT4-SNAP protein. Twenty-four hours after the transduction, the cells were treated with and without 20 μM of 4-HNE for an additional 4 hours. This 4-HNE dose was chosen because it was similar to the physiological levels and was non-toxic. In order to identify and quantitate GLUT4 carbonylation (K264 NHE-adduct or R265 and R246 glutamic semialdehyde adducts), a mass spectroscopy-based multiple reaction monitoring (MRM) method was developed and validated.

Where a name gives a salt, the structure may show the parent alone.

In the case of `NCCCCCNCCC[C@H](N)C(=O)O` [MC-180352, (S)-2-amino-5-((5-aminopentyl)amino)pentanoic acid trihydrochloride], in the test with 3T3-L1 adipocytes [1], the GLUT4 carbonylations entry is on record as “reduce GLUT4 carbonylations”; the “glucose uptake impairment induced by 4-HNE and H2O2” value is “prevent glucose uptake impairment induced by 4-HNE and H2O2”.
Regarding `OO` [Example H2O2, H2O2], the “reduction of glucose uptake” value in the test with 3T3-L1 adipocytes [2] is 66%.
For `CCCCCC(O)/C=C/C=O` (stereo not shown) [Example 4-HNE, 4-hydroxynonenal], the “reduction of glucose uptake” value with 3T3-L1 adipocytes [2] amounted to 32%. Besides, the “formation of K264-HNE GLUT4 adduct” value in the test on GLUT4 was “induced the formation of the K264-HNE adduct”.
Turning to `NCCCCCCNCCC[C@H](N)C(=O)O` [MC-180351, (S)-2-amino-5-((6-aminohexyl)amino)pentanoic acid trihydrochloride], in the test on 3T3-L1 adipocytes [1], the GLUT4 carbonylations entry was “reduce GLUT4 carbonylations”; the “glucose uptake impairment induced by 4-HNE and H2O2” value was “prevent glucose uptake impairment induced by 4-HNE and H2O2”.
